pIC50: −log10 of the molar value. Where two headings read alike, the source gives them in different places.
Legend:
in vitro [1] = details: human, microsomes
in vitro [2] = details: human; for IC50 at 120 h: PMA-differentiated THP-1 cells; for CC50 at 120 h: THP-1 cells differentiated with PMA
[3] = tested on: primary peritoneal mouse macrophages (PMM); experiment: cells; details: Macrophage
[4] = tested on: Leishmania infantum MHOM/MA(BE)/67/ITMAP263 intracellular amastigotes; experiment: microbe, parasite or virus in culture; details: Macrophage, in Mus musculus
physchem = details: HPLC, Ascentis Express RP Amide column
[5] = tested on: Leishmania infantum (MHOM/MA/67/ITMAP-263) intracellular amastigotes in THP-1; experiment: microbe, parasite or virus in culture
[6] = tested on: Leishmania infantum MHOM/MA(BE)/67/ITMAP263 intracellular amastigotes; details: for potency against L. inf. in words: intracellular amastigotes in PMM
in vitro [7] = details: mouse, microsomes; for microsomal CLint at 0.5 h, 0.5 µM: intrinsic in vitro clearance, liver microsomes; for microsomal CLint at 0.5 μM: pH 7.4, MLM CLint (uL/min/mg), mouse liver microsomes
in vitro [8] = details: human
in vitro [9] = details: human, HepG2 cells
in vitro [10] = details: human, HFF-1 cells
[11] = tested on: Trypanosoma cruzi, Tulahuen CL2, beta-galactosidase strain; experiment: microbe, parasite or virus in culture; details: MRC5, read-out: T. cruzi Tulahuen C4 (LacZ) IC50 (uM)
in vitro [12] = details: PAMPA
[13] = pH 7.4, Microsome Clint Human, intrinsic in vitro clearance, liver microsomes
[14] = read-out: PMM pIC50 (converted)
[15] = read-out: L. inf. pIC50, intracellular amastigotes in PMM (converted), geometric mean of a minimum of two experiments ± standard error
[16] = pH 7.4, elog D, HPLC measured log D, pH 7.4
[17] = THP-1, 120 h, read-out: Intracellular activity pIC50 L. inf. in THP-1 (converted)
[18] = pH 7.4, Microsome Clint,u Human, Table 2, intrinsic in vitro clearance, liver microsomes
[19] = pH 7.4, Microsome Clint,u Mouse, Table 2
[20] = pH 7.4, HLM CLint (uL/min/mg), human liver microsomes
[21] = read-out: L. Inf. pIC50, from L. infantum intracellular amastigote IC50 (converted)
[22] = read-out: L. infantum MHOM/MA(BE)/67/ITMAP263 intracellular amastigotes IC50 (uM), intracellular amastigotes
[23] = THP-1, read-out: L. infantum MHOM/MA/67/ITMAP263 intracellular amastigotes THP-1 cells IC50 (uM)
[24] = reference drug in the intracellular Leishmania amastigote assay

SMILES: COc1ccc(S(C)(=O)=O)cc1S(=O)(=O)N(Cc1ccc(F)cc1)Cc1ccc(F)cc1 [Compound 26]
- microsomal CLint at 0.5 μM (in vitro [1]; [13]): 296 µL/min/mg
- IC50 at 120 h (in vitro [2]): > 64.6 µM
- IC50 [3, 14]: > 64.6 µM
- IC50 [4, 15]: 1.29 µM
- chromatographic logD (physchem; [16]): 3.9
- IC50 [5, 17]: 5.89 µM

SMILES: COCCOCN1CNc2cc(OC)c(S(=O)(=O)N(Cc3ccccc3)Cc3ccccc3)cc2S1(=O)=O [Compound 29]
- potency against L. inf. in words [6]: sub-micromolar potency
- microsomal CLint at 0.5 h, 0.5 µM (in vitro [1]; [13]): 518 µL/min/mg
- IC50 at 120 h (in vitro [2]): 39.8 µM
- IC50 [3, 14]: > 64.6 µM
- microsomal CLint at 0.5 h, 0.5 µM (in vitro [7]; pH 7.4, Microsome Clint Mouse): 1370 µL/min/mg
- IC50 [4, 15]: 0.661 µM
- chromatographic logD (physchem; [16]): 4
- IC50 [5, 17]: 14.8 µM

SMILES: COc1ccc(C(=O)N2CCOCC2)cc1S(=O)(=O)N(Cc1ccccc1)CC(C)(C)C [Compound 45]
- microsomal CLint at 0.5 h, 0.5 µM (in vitro [1]; [18]): 1600 µL/min/mg
- IC50 at 120 h (in vitro [2]): > 64.6 µM
- IC50 [3, 14]: > 64.6 µM
- microsomal CLint at 0.5 h, 0.5 µM (in vitro [7]; [19]): 2580 µL/min/mg
- IC50 [4, 15]: 1 µM
- chromatographic logD (physchem; [16]): 3.8
- IC50 [5, 17]: 27.5 µM

SMILES: COc1ccc(C(=O)N2CCOCC2)cc1S(=O)(=O)N(Cc1ccc(C(F)(F)F)nc1)CC(C)(C)C [Compound 48]
- potency against L. inf. in words [6]: inactive
- microsomal CLint at 0.5 h, 0.5 µM (in vitro [1]; [18]): 143 µL/min/mg
- IC50 at 120 h (in vitro [2]): > 64.6 µM
- IC50 [3, 14]: > 64.6 µM
- microsomal CLint at 0.5 h, 0.5 µM (in vitro [7]; [19]): 379 µL/min/mg
- IC50 [4, 15]: 45.7 µM
- IC50 [5, 17]: > 64.6 µM

SMILES: COc1ccc(C#N)cc1S(=O)(=O)N(Cc1ccccc1)Cc1cnc(C(F)(F)F)nc1 [Compound 49]
- microsomal CLint at 0.5 μM (in vitro [1]; [18]): 100 µL/min/mg
- IC50 at 120 h (in vitro [2]): > 64.6 µM
- IC50 [3, 14]: > 64.6 µM
- IC50 [4, 15]: 3.89 µM
- chromatographic logD (physchem; [16]): 3.8
- IC50 [5, 17]: 61.7 µM

SMILES: CCN(Cc1ccc(F)cc1)S(=O)(=O)c1cc(C(=O)N2CCOCC2)ccc1OC [DNDI0003392124]
- CC50 at 3 days (in vitro [8]): > 64 µM
- CC50 (in vitro [9]): > 64 µM
- CC50 (in vitro [10]): > 64 µM
- microsomal CLint at 0.5 μM (in vitro [1]; [20]): 142 µL/min/mg
- CC50 at 120 h (in vitro [2]): > 64 µM
- IC50 [11]: 36 µM
- IC50 ([3]; read-out: PMM IC50 (uM)): > 64 µM
- microsomal CLint at 0.5 μM (in vitro [7]): 116 µL/min/mg
- IC50 [4, 21]: 20.9 µM
- IC50 [4, 22]: 20.7 µM
- Papp (in vitro [12]): 15.5 ×10⁻⁶ cm/s
- chromatographic logD (physchem; pH 7.4, eLogD, experimental): 2.7
- IC50 [5, 23]: > 64 µM

SMILES: COCCN(Cc1ccccc1)S(=O)(=O)c1ccccc1OC(F)(F)F [DNDI0003392130]
- CC50 at 3 days (in vitro [8]): > 64 µM
- CC50 (in vitro [9]): > 64 µM
- CC50 (in vitro [10]): 45.1 µM
- microsomal CLint at 0.5 μM (in vitro [1]; [20]): 194 µL/min/mg
- CC50 at 120 h (in vitro [2]): > 64 µM
- IC50 [11]: 17.8 µM
- IC50 ([3]; read-out: PMM IC50 (uM)): > 64 µM
- microsomal CLint at 0.5 μM (in vitro [7]): 222 µL/min/mg
- IC50 [4, 21]: 8.32 µM
- IC50 [4, 22]: 8.27 µM
- Papp (in vitro [12]): 5.26 ×10⁻⁶ cm/s
- chromatographic logD (physchem; pH 7.4, eLogD, experimental): 3.8
- IC50 [5, 23]: 31.2 µM

SMILES: Nc1cc(Cl)c(S(N)(=O)=O)cc1S(=O)(=O)N(Cc1ccccc1)Cc1ccccc1 [DNDI0003392145]
- CC50 at 3 days (in vitro [8]): 43.4 µM
- CC50 (in vitro [9]): > 64 µM
- CC50 (in vitro [10]): > 64 µM
- microsomal CLint at 0.5 μM (in vitro [1]; [20]): 253 µL/min/mg
- CC50 at 120 h (in vitro [2]): 60.6 µM
- IC50 [11]: 17.7 µM
- IC50 ([3]; read-out: PMM IC50 (uM)): 50.8 µM
- IC50 [4, 21]: 35.5 µM
- IC50 [4, 22]: 35.3 µM
- Papp (in vitro [12]): 3.37 ×10⁻⁶ cm/s
- chromatographic logD (physchem; pH 7.4, eLogD, experimental): 3.4
- IC50 [5, 23]: 31.2 µM

SMILES: COc1ccc(C(=O)N2CCOCC2)cc1S(=O)(=O)N(Cc1ccccc1)CC(C)(C)C [DNDI0003407876]
- CC50 at 3 days (in vitro [8]): > 64 µM
- CC50 (in vitro [9]): > 64 µM
- CC50 (in vitro [10]): > 64 µM
- microsomal CLint at 0.5 μM (in vitro [1]; [20]): 1140 µL/min/mg
- CC50 at 120 h (in vitro [2]): > 64 µM
- IC50 [11]: 16.7 µM
- IC50 ([3]; read-out: PMM IC50 (uM)): > 64 µM
- microsomal CLint at 0.5 μM (in vitro [7]): 858 µL/min/mg
- IC50 [4, 21]: 1 µM
- IC50 [4, 22]: 1 µM
- Papp (in vitro [12]): 21.7 ×10⁻⁶ cm/s
- IC50 [5, 23]: 27.5 µM

SMILES: COc1ccc(C(=O)N2CCOCC2)cc1S(=O)(=O)N(Cc1ccc(C(F)(F)F)nc1)CC(C)(C)C [DNDI0003407906]
- CC50 at 3 days (in vitro [8]): > 64 µM
- CC50 (in vitro [9]): > 64 µM
- CC50 (in vitro [10]): > 64 µM
- microsomal CLint at 0.5 μM (in vitro [1]; [20]): 127 µL/min/mg
- CC50 at 120 h (in vitro [2]): > 64 µM
- IC50 [11]: 35.6 µM
- IC50 ([3]; read-out: PMM IC50 (uM)): > 64 µM
- microsomal CLint at 0.5 μM (in vitro [7]): 262 µL/min/mg
- IC50 [4, 21]: 45.7 µM
- IC50 [4, 22]: 45.2 µM
- Papp (in vitro [12]): 15.7 ×10⁻⁶ cm/s
- IC50 [5, 23]: > 64 µM

SMILES: COCCOCN1CNc2cc(OC)c(S(=O)(=O)N(Cc3ccccc3)Cc3ccccc3)cc2S1(=O)=O [DNDI0003425511]
- CC50 at 3 days (in vitro [8]): > 64 µM
- CC50 (in vitro [9]): 52 µM
- CC50 (in vitro [10]): > 64 µM
- microsomal CLint at 0.5 μM (in vitro [1]; [20]): 460 µL/min/mg
- CC50 at 120 h (in vitro [2]): 40.2 µM
- IC50 [11]: 61.7 µM
- IC50 ([3]; read-out: PMM IC50 (uM)): > 64 µM
- microsomal CLint at 0.5 μM (in vitro [7]): 976 µL/min/mg
- IC50 [4, 21]: 0.661 µM
- IC50 [4, 22]: 0.65 µM
- Papp (in vitro [12]): 0.92 ×10⁻⁶ cm/s
- IC50 [5, 23]: 14.8 µM

SMILES: O=S1(=O)NCNc2cc(Cl)c(S(=O)(=O)N(Cc3ccccc3)Cc3ccccc3)cc21 [DNDI0003425512]
- CC50 at 3 days (in vitro [8]): 25 µM
- CC50 (in vitro [9]): > 64 µM
- CC50 (in vitro [10]): 29.5 µM
- microsomal CLint at 0.5 μM (in vitro [1]; [20]): 63 µL/min/mg
- CC50 at 120 h (in vitro [2]): 52.4 µM
- IC50 [11]: 9.14 µM
- IC50 ([3]; read-out: PMM IC50 (uM)): 32 µM
- IC50 [4, 21]: 1.29 µM
- IC50 [4, 22]: 1.28 µM
- Papp (in vitro [12]): 0.04 ×10⁻⁶ cm/s
- chromatographic logD (physchem; pH 7.4, eLogD, experimental): 4.2
- IC50 [5, 23]: 24.9 µM

SMILES: COCCOCN(Cc1ccccc1)S(=O)(=O)c1cc(OC)ccc1OC [DNDI0003425514]
- CC50 at 3 days (in vitro [8]): > 64 µM
- CC50 (in vitro [9]): > 64 µM
- CC50 (in vitro [10]): > 64 µM
- CC50 at 120 h (in vitro [2]): > 64 µM
- IC50 [11]: > 64 µM
- IC50 ([3]; read-out: PMM IC50 (uM)): > 64 µM
- IC50 [4, 21]: 6.17 µM
- IC50 [4, 22]: 6.11 µM
- Papp (in vitro [12]): 12.8 ×10⁻⁶ cm/s
- chromatographic logD (physchem; pH 7.4, eLogD, experimental): 3.4
- IC50 [5, 23]: > 64 µM

SMILES: COc1ccc(C#N)cc1S(=O)(=O)N(Cc1ccccc1)Cc1cnc(C(F)(F)F)nc1 [DNDI0003425527]
- CC50 at 3 days (in vitro [8]): > 64 µM
- CC50 (in vitro [9]): > 64 µM
- CC50 (in vitro [10]): > 64 µM
- microsomal CLint at 0.5 μM (in vitro [1]; [20]): 80 µL/min/mg
- CC50 at 120 h (in vitro [2]): > 64 µM
- IC50 [11]: 28.4 µM
- IC50 ([3]; read-out: PMM IC50 (uM)): > 64 µM
- microsomal CLint at 0.5 μM (in vitro [7]): 100 µL/min/mg
- IC50 [4, 21]: 3.89 µM
- IC50 [4, 22]: 3.9 µM
- Papp (in vitro [12]): 29.4 ×10⁻⁶ cm/s
- IC50 [5, 23]: 61.1 µM

SMILES: CCCCCCCCCCCCCCCCOP(=O)([O-])OCC[N+](C)(C)C [Miltefosine, reference compound]
- pIC50 [6, 24]: ~5.30
- IC50 [4, 15]: 8.71 µM
- pIC50 [4, 24]: 5.00 to 5.30
- IC50 [5, 17]: 1.95 µM

Reference: publication PMC8126888 (RSC Medicinal Chemistry, 2020)
